Reference: patent US8178135B2, “Aqueous solution of conophylline and/or conophyllidine” (Keio University, priority 2006, dated 2012)
Read-outs that look alike come from different tables or passages of the source.

Legend:
[1] = Dissolution of dried ethanol extract in citric acid / citrate buffer at pH 2.6 to 6.0 (HPLC); format: physicochemical
Method: (§1) Conophylline and conophyllidine were analyzed by reversed phase HPLC in a high pressure gradient mode using a YMC-Pack Pro C18 RS column (4.6 mm×250 mm; manufactured by YMC Co., Ltd.). The mobile phase consisted of 1% by volume acetic acid as solvent A and acetonitrile as solvent B. The gradient program was set to start with 10% B at a flow rate of 1 ml/min, and the portion of B was increased linearly to 55% over 25 min. The column temperature was 40° C. and UV absorption was monitored at the wavelength of 335 nm. The reference solutions of conophylline and conophyllidine were prepared immediately before measurement and their concentrations were calculated from the absorbance at 335 nm of the solutions prepared.
After some of the dried leaves obtained in Example 1 were pulverized in a mill, 10 g of the pulverized product was extracted with 100 ml of 60% ethanol. Then, the extract was centrifuged and supernatant containing conophylline and conophyllidine was recovered. […] The supernatant was dispensed in 3 ml aliquots into 5 centrifuge tubes and then concentrated to dryness by centrifugation. A buffer (citric acid aqueous solution or sodium citrate buffer) at pH 2.6 to pH 6.0 prepared by appropriately mixing 0.1 M citric acid solution and 0.1 M sodium citrate solution was added at 0.1 ml per tube. After 10 min vigorous stirring, the supernatant was centrifugated again and diluted 10-fold with 50% ethanol. After the dilution, insoluble matter was removed by filtration with a 0.2-μm membrane filter and the contents of conophylline and conophyllidine in the filtrated supernatant were measured by HPLC (Table 2).

[2] = Amounts in lysate, acid extract and fractions after neutralization to pH 6.0, centrifugation and ultrafiltration (HPLC); format: physicochemical; details: for amount in Aqueous extract: clarified 0.1 N hydrochloric acid extract; for amount in Lysate: distilled water, 50° C. 30 min, centrifuged supernatant; for amount in Centrifuged supernatant: extract adjusted to pH 6.0, 1,500×g 5 min; for amount in Centrifuged precipitate: extract adjusted to pH 6.0, precipitate dissolved in equal volume of 50% ethanol; for amount in UF filtrate: pH 6.0, passed ultrafiltration membrane; for amount in UF filtrate / amount in UF debris: cut-off 50,000; for amount in UF debris: pH 6.0, retained on ultrafiltration membrane
Method: as §1
200 ml of 0.1 N hydrochloric acid was added to 4 g of pulverized product of the dried leaves obtained by the same method as in Example 2, which was then extracted at 50° C. for 30 min. After the debris was removed by paper filtration, the extract was ultrafiltrated with pencil-type module SLP-0053 manufactured by Asahi Kasei Corporation (molecular weight cut-off 10,000) and 165 ml of filtrate was recovered. The pH of the filtrate was adjusted by gradually adding sodium carbonate aqueous solution and the precipitate formed was recovered by centrifugation. The precipitate was then vacuum-evaporated to yield 70 mg of dried product. This dried product contained 9.8 μg of conophylline and 13.3 μg of conophyllidine per mg
The extract was prepared and clarified by removing debris by paper filtration in the same method as in Example 5. Then 100 ml of the clarified extract was adjusted to pH 6.0 with sodium hydroxide aqueous solution. This solution was centrifuged (1,500×g, 5 min) to separate into a supernatant (centrifuged supernatant) and precipitate (centrifuged precipitate). Next, the precipitate was dissolved in an equal volume of 50% ethanol, and the amounts of the active ingredients (conophylline and conophyllidine) in the clarified extract, the centrifuged supernatant, and the centrifuged precipitate were measured by HPLC. Further, the amounts of the active ingredient in the supernatant (lysate) obtained by adding 200 ml of distilled water to 4 g of the pulverized product of the dried leaves of Tabernaemontana divaricata and heating at 50° C. for 30 min, followed by centrifugation at 1,500×g for 5 min were also measured by HPLC.
Further, a sodium hydroxide aqueous solution was added to 1 ml of the above-described clarified extract to adjust pH to 6.0. This extract was treated with an ultrafiltration membrane USY-5 (molecular weight cut-off: 50,000), manufactured by Advantech Co., Ltd. and the filtrate which had passed through the membrane was recovered (UF filtrate). At the same time, the remaining component on the membrane was dissolved and recovered using 1 ml of 50% ethanol (UF debris), and the amounts of the active ingredients in the UF filtrate and UF debris were measured by HPLC (Table 5). As a result, no amount of conophylline or conophyllidine was not detected in the filtrate at all; almost all was present in the fraction which had not permeated through the ultrafiltration membrane.

[3] = Blood concentrations after oral administration of Crude extract I to rats; format: in vivo, rat
Method: One drop of Tween 80 was added to the crude extract (0.05 g) obtained in Example 1, which was suspended in 5-ml of water for injection. This suspension was administered to 5-week old rats (Crj:CD(SD) IGS, SPF, male) using a sonde by forced oral administration at a dose of 5 ml/kg body weight (n=2). Blood was taken from the orbital venous plexus of each rat at 0.5, 1, 2, 4, 8, 24 hours post administration and serum was recovered by centrifugation. Then, the concentrations of conophylline and conophyllidine in the blood were measured (Table 7) by the same method as in Example 8. As the control, water for injection containing one drop of Tween80 was administered orally at a dose of 5 ml/kg body weight (n=2) and the blood concentrations were measured in the same manner.

[4] = Concentration dissolved after neutralization with pectin or sodium polyacrylate (partially purified by reversed phase column); format: physicochemical; details: for concentration in solution: Control: not neutralized
Method: Crude extract I (250 mg) obtained in Example 1 was dissolved in 5 ml of ethanol. Water was added to this solution in a total volume of 50 ml, which was passed through a glass column packed with about 5 ml of ODS resin (DM1020T, manufactured by Fuji Silysia Chemical Ltd.). After unadsorbed matter was removed by washing the column with 10 ml of distilled water, the adsorbed component was eluted with 10 ml of ethanol. Then, after the solvent was removed by centrifugal concentration, the concentrate was dissolved in 5 ml of 0.1 N hydrochloric acid and the solution was dispensed in 0.5 ml aliquots into test tubes. Then, 10 μl, 100 μl, or 1000 μl of a 0.2% aqueous solution of pectin or 0.2% aqueous solution of sodium polyacrylate was added to the aliquots. The solutions were treated in the same way as in Example 11 and the concentrations of conophylline and conophyllidine in the supernatants were measured.

pancreatic β cells = details: cited from earlier work
[5] = male, Crj:CD(SD) IGS, rat, in vivo, po, blood concentration
[6] = pH 6.0, Sodium polyacrylate 10 μg/ml
[7] = pH 6.0, Sodium polyacrylate 100 μg/ml

For `CC[C@@]12CC(C(=O)OC)=C3Nc4cc5c(cc4[C@@]34CCN(C[C@H]3O[C@H]31)[C@@H]24)[C@@H]1[C@H](O5)[C@@H](O)[C@@]2(CC)CC(C(=O)OC)=C3Nc4c(cc(O)c(OC)c4OC)[C@@]34CCN1[C@@H]24` [Conophylline, conophylline], which “content dissolved in supernatant” value ([1]; Citrate buffer solution, pH 3) is on record?
Its value is 0.866 mg/mL.

And the “content dissolved in supernatant” value ([1]; Citrate buffer solution, pH 4)?
The value was 0.093 mg/mL.

And the “content dissolved in supernatant” value ([1]; Citrate buffer solution, pH 5)?
Its value is 0.0018 mg/mL.

And the “content dissolved in supernatant” value ([1]; Citrate buffer solution, pH 6)?
The value was 0.0009 mg/mL.

And the “content dissolved in supernatant” value ([1]; Citric acid, pH 2.6)?
Its value is 1.072 mg/mL.

What about the “amount in Aqueous extract” value [2] of the same compound?
The value was 2.62 µg/mL.

What about the “amount in Lysate” value [2] of the same compound?
The value was 0.04 µg/mL.

What about the “amount in Centrifuged supernatant” value [2] of the same compound?
The value was 2.22 µg/mL.

What about the “amount in Centrifuged precipitate” value [2] of the same compound?
The value was 0.48 µg/mL.

And the “amount in UF filtrate” value [2]?
The value was 0.00 µg/mL.

And the “amount in UF debris” value [2]?
The value was 2.39 µg/mL.

And the blood concentration ([3]; male, Crj:CD(SD) IGS, rat, in vivo, po, 0.5 h)?
Its blood concentration is 398 ng/mL.

What about the blood concentration ([3]; male, Crj:CD(SD) IGS, rat, in vivo, po, 1 h) of the same compound?
The blood concentration was 472 ng/mL.

What about the blood concentration ([3]; male, Crj:CD(SD) IGS, rat, in vivo, po, 24 h) of the same compound?
Its blood concentration is 108 ng/mL.

And the concentration at 0.5 h [3, 5]?
The concentration at 0.5 h was 332 ng/mL.

What about the concentration at 1 h [3, 5] of the same compound?
Its concentration at 1 h is 270 ng/mL.

And the concentration at 24 h [3, 5]?
The concentration at 24 h was 90 ng/mL.

What about the concentration in solution [4] of the same compound?
Its concentration in solution is 11280 ng/mL.

And the “concentration in supernatant after neutralization” value (“concentration in supernatant” for short) ([4]; pH 6.0, Pectin 10 μg/ml)?
The value was 270 ng/mL.

What about the “concentration in supernatant” value ([4]; pH 6.0, Pectin 100 μg/ml) of the same compound?
The value was 550 ng/mL.

And the “concentration in supernatant” value ([4]; pH 6.0, Pectin 1000 μg/ml)?
The value was 2590 ng/mL.

What about the “concentration in supernatant” value [4, 6] of the same compound?
Its value is 240 ng/mL.

What about the “concentration in supernatant” value [4, 7] of the same compound?
Its value is 5150 ng/mL.

What about the “concentration in supernatant” value ([4]; pH 6.0, additive None) of the same compound?
The value was 190 ng/mL.

And the “regeneration of pancreatic β cells” value (pancreatic β cells)?
The value was “activate regeneration of pancreatic β cells”.

Which results are given for `CC[C@@]12C=CCN3CC[C@]4(C(=C(C(=O)OC)C1)Nc1cc5c(cc14)[C@H]1[C@@H](O5)[C@H](O)[C@]4(CC)CC(C(=O)OC)=C5Nc6c(cc(O)c(OC)c6OC)[C@@]56CCN1[C@H]46)[C@H]32` (stereo in doubt) [Conophyllidine, conophyllidine]?
content dissolved in supernatant ([1]; Citrate buffer solution, pH 3): 0.612 mg/mL; content dissolved in supernatant ([1]; Citrate buffer solution, pH 4): 0.055 mg/mL; content dissolved in supernatant ([1]; Citrate buffer solution, pH 5): 0.0017 mg/mL; content dissolved in supernatant ([1]; Citrate buffer solution, pH 6): 0.0010 mg/mL; content dissolved in supernatant ([1]; Citric acid, pH 2.6): 0.786 mg/mL; amount in Aqueous extract [2]: 2.01 µg/mL; amount in Lysate [2]: 0.02 µg/mL; amount in Centrifuged supernatant [2]: 1.41 µg/mL; amount in Centrifuged precipitate [2]: 0.30 µg/mL; amount in UF filtrate [2]: 0.00 µg/mL; amount in UF debris [2]: 2.19 µg/mL; blood concentration ([3]; Crude extract I oral, rats (animals 3, 4), 0.5 h): 65 ng/mL; blood concentration ([3]; Crude extract I oral, rats (animals 3, 4), 1 h): 62 ng/mL; blood concentration ([3]; Crude extract I oral, rats (animals 3, 4), 2 h): 32 ng/mL; blood concentration ([3]; Crude extract I oral, rats (animals 3, 4), 4 h): 25 ng/mL; blood concentration ([3]; Crude extract I oral, rats (animals 3, 4), 8 h): 13 ng/mL; blood concentration ([3]; Crude extract I oral, rats (animals 3, 4), 24 h): 9 ng/mL; concentration at 0.5 h ([3]; male, Crj:CD(SD) IGS, rat, in vivo, po, 0.05 g/kg, Crude extract I oral, rats (animals 3, 4), 0.5 h, read-out: blood concentration): 54 ng/mL; concentration at 1 h ([3]; male, Crj:CD(SD) IGS, rat, in vivo, po, 0.05 g/kg, Crude extract I oral, rats (animals 3, 4), 1 h, read-out: blood concentration): 61 ng/mL; concentration at 2 h ([3]; male, Crj:CD(SD) IGS, rat, in vivo, po, 0.05 g/kg, Crude extract I oral, rats (animals 3, 4), 2 h): 40 ng/mL; concentration at 4 h ([3]; male, Crj:CD(SD) IGS, rat, in vivo, po, 0.05 g/kg, Crude extract I oral, rats (animals 3, 4), 4 h): 36 ng/mL; concentration at 8 h ([3]; male, Crj:CD(SD) IGS, rat, in vivo, po, 0.05 g/kg, Crude extract I oral, rats (animals 3, 4), 8 h): 24 ng/mL; concentration at 24 h ([3]; male, Crj:CD(SD) IGS, rat, in vivo, po, 0.05 g/kg, Crude extract I oral, rats (animals 3, 4), 24 h, read-out: blood concentration): 13 ng/mL; concentration in solution [4]: 16080 ng/mL; concentration in supernatant after neutralization ([4]; pH 6.0, Pectin 10 μg/ml): 130 ng/mL; concentration in supernatant after neutralization ([4]; pH 6.0, Pectin 100 μg/ml): 570 ng/mL; concentration in supernatant after neutralization ([4]; pH 6.0, Pectin 1000 μg/ml): 2740 ng/mL; concentration in supernatant after neutralization [4, 6]: 170 ng/mL; concentration in supernatant after neutralization [4, 7]: 6990 ng/mL; concentration in supernatant after neutralization ([4]; pH 6.0, additive None): 160 ng/mL; regeneration of pancreatic β cells (pancreatic β cells): activate regeneration of pancreatic β cells
